Laboratory results taken from article PMC4322365, “A Ligand-observed Mass Spectrometry Approach Integrated into the Fragment Based Lead Discovery Pipeline” (Scientific Reports, 2015).
“And” between values parts separate entries of the source, which are not always exact repeats. Equal entries are not always repeated.

Key:
NS5B = molecular target: T1, NS5B (Hepatitis C virus genotype 1b, UniProt P26663); assay: SPR analysis (Biacore T200, immobilized NS5B); format: binding; details: for SPR Corr. response (RU): corrected response above 5 RU indicates positive binding; for SPR binding: threshold 5 RU
T1 construct: NS5B with a C-terminal 10-His tag was expressed in E. coli; 10-His (C); made in house; host or cells: E. coli
T1 sequence (P26663 2420-3010): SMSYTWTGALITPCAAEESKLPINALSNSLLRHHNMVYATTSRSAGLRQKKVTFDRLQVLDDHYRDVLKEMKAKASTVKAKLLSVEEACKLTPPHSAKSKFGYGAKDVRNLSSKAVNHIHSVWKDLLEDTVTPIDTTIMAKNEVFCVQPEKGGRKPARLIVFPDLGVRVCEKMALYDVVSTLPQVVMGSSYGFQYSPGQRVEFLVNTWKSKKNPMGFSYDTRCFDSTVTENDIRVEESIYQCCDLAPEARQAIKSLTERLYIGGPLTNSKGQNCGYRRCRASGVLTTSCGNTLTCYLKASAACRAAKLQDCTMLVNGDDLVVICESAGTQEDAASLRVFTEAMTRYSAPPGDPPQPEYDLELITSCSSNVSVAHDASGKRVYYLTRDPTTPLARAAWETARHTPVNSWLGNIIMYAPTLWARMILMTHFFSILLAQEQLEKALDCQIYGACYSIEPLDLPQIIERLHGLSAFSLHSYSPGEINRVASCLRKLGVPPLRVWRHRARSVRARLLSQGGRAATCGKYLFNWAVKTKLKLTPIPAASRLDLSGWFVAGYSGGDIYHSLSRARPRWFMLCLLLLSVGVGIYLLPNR
Protocol: In order to determine the dissociation constant of each fragment ligand, we prepared calibration curves for the MS responses of ten fragments in a mixture (Figure S1) and measured the recovery rate of each fragment (Table S3), which were used to derive the actual concentrations of fragments bound to the target. Kd values were then calculated based on the measured concentrations of fragment ligands dissociated from the target (Table S3). […] Ligand efficiency (LE) values were then derived from Kd's as a measure to justify which fragments to further optimize and elaborate in the FBLD pipeline[46][47] (Figure 2A). To examine the accuracy of Kd measurement using this new approach, we first attempted to utilize ITC for binding affinity assessment. […] SPR was then implemented for Kd determination for these fragment hits. […] However, using the single point measurement method, we were still able to estimate Kd's for these fragment-target interactions to be all within the millimolar range and rank the order of their binding affinity according to corrected responses (Figure 2B). […] The overall consistency of affinity ranking and estimation between the two independent assays implied our new approach enabled reliable assessment of binding affinity, especially valuable for characterizing low-affinity fragments not amenable to conventional biophysical approaches.
The SPR experiment was performed on a Biacore T200 optical biosensor (Biacore Life Sciences, GE Healthcare). Series S sensor chips CM5, NHS, EDC, ethanolamine HCl as well as sampling vials and caps were all obtained from Biacore. A solution of 1 × PBS with 5% DMSO was used as running buffer. NS5B protein at 50 μg/ml prepared in buffer of 10 mM sodium acetate (pH 5.5) was injected for immobilization which reached a level of 8000 RU. During each binding cycle, the fragment solution was injected for 1 min at a flow rate of 30 μL/min and dissociation was monitored for 300 s. Data were collected with the biosensor instrument thermo stated to 25°C. Raw data collected on an SPR biosensor were further processed to remove systematic artifacts stemming from nonspecific binding, signal drift, and bulk refractive index changes. Solvent correction and molecular weight adjustment were also applied in this study. All data processing and analysis was performed using the Biacore T200 Evaluation Software.

HCV RNA polymerase NS5B = molecular target: T2, HCV RNA polymerase NS5B (Hepatitis C virus genotype 1b, UniProt P26663); assay: Ligand-observed MS primary screen of the 384-fragment mixture (ultrafiltration LC/MS); format: binding; details: for S/N in the 1st screen: 384 fragments each 25 μM, NS5B 50 μM, two experimental replicates separated by a slash, S/N > 10 indicates positive hit
T2 construct: NS5B with a C-terminal 10-His tag was expressed in E. coli; 10-His (C); made in house; host or cells: E. coli
T2 sequence (P26663 2420-3010): as above
Protocol: A two-stage fragment screening strategy based on the ligand-observed MS analysis was devised that involved a primary screen of 384 fragment as a whole followed by a secondary independent screen of fragment cocktails of less complexity. In the primary screen, a mixture of all 384 fragments was incubated with NS5B protein before the fragment-bound complexes were separated from excessive free fragments using ultrafiltration. […] Fragments dissociated from the target using 90% methanol in deionized water were subjected to LC-MS analysis and those showing MS intensity substantially higher than the negative control (protein-free incubation) were considered positive hits (Figure 1A). Although in our previous assay development we justified an S/N ratio of 2 to be the threshold for positive binding, here we raised the S/N threshold to 10 so as to retain the upmost strong binders given that low-affinity fragments are more inclined to nonspecific adsorption. Impressively, the high selectivity of high-resolution MS (HRMS) analysis enabled rapid screening of the 384-fragment mixture within 20-min analytical time, generating 20 preliminary hits with S/N above 10 (Figure 1B, full data sets in Table S1). It is noted that 20 compounds (5%) in this library are not amenable to our analysis, probably due to the limited sensitivity of the mass spectrometer used in this study or the intrinsically low ionization efficiency of these compounds. Nevertheless, these undetectable fragments were still included in the screening cocktail to maximize the complexity of multiple ligand interactions during incubation. To the best of our knowledge, such a high capacity in mixture screening has never been shown before for fragment libraries, and we anticipate the throughput can be easily boosted to screening >1000 fragments within half an hour using a state-of-the-art mass spectrometer.
In the primary screening, a mixture of 384 fragments (each at a final concentration of 25 μM) and NS5B at 50 μM was prepared in the binding buffer of 20 mM MES (pH 6.5), 300 mM NaCl and 10% glycerol, and incubated for 40 min at 25°C. All fragments of the library were either purchased from Sigma or synthesized in our laboratory, and their structural diversity was summarized in Figure S4. The mixture was then filtered through an ultrafiltration membrane (50 KD MW cut-off) by centrifugation at 13000 g for 10 min at […]. The protein complexes bound with different fragments were washed twice with 10 mM ammonium acetate (pH 6.5) followed by centrifugation to remove the unbound fragments. The resulting solution of the complexes was transferred to a new centrifugal tube, and the ligands were dissociated from NS5B with 90% methanol in deionized water. The released ligands were then separated from the denatured protein by centrifugation at 13000 g for 10 min at 20°C. The supernatant containing the ligands was evaporated by a speed vacuum, reconstituted in 80% methanol, and analyzed by LC/MS. The protein-free control was prepared by using the binding buffer substitute for NS5B during incubation and it underwent the same process as the NS5B incubated sample. In the secondary screen, 384 fragments were divided into 7 cocktails, each consisting of 50 fragments except for the seventh cocktail of 84 fragments. Each cocktail was then incubated with NS5B in the binding buffer at the same final concentration as in the primary screen. […] Ultrafiltration and complex dissociation were performed as described earlier to obtain fragment ligands. Samples were all prepared in duplicate and analyzed separately.
Aliquots of reconstituted ultrafiltrates were analyzed on a Waters Synapt G1 high-dfinition mass spectrometer (Milford, MA) equipped with a Waters Acquity UPLC system. UPLC separation was carried out on a Waters Acquity BEH C18 column (2.1 mm × 50 mm, 1.7 μm) at a flow rate of 200 μL/min, with the mobile phases of water/0.1% formic acid (A) and acetonitrile/0.1% formic acid (B). […]

## Oc1ccc(F)c(Cl)c1 [Fragment 85]
NS5B
  SPR Corr. response (RU): 30.9 RU
HCV RNA polymerase NS5B
  S/N in the 1st screen: 27.9 and 29.7

## N#CCc1ccc(O)cc1 [Fragment 114]
NS5B
  SPR Corr. response (RU): 55.6 RU
HCV RNA polymerase NS5B
  S/N in the 1st screen: 17.9 and 20.9

## Cc1ccc2oc(=O)ccc2c1 [Fragment 117]
NS5B
  SPR Corr. response (RU): 24.6 RU
HCV RNA polymerase NS5B
  S/N in the 1st screen: 55.6 and 46.8

## Cn1c(=O)cc(O)c2ccccc21 [Fragment 130]
NS5B
  SPR Corr. response (RU): 18.4 RU
HCV RNA polymerase NS5B
  S/N in the 1st screen: 93.1 and 102.3
HCV RNA polymerase NS5B; Figure 1A workflow example
  Binding: + (Positive fragment binding is indicated by its S/N ratio > 10)
  S/N: 93

## Cc1cc(N)n(-c2ccccc2)n1 [Fragment 131]
NS5B
  SPR Corr. response (RU): 14.7 RU
HCV RNA polymerase NS5B
  S/N in the 1st screen: 45.7 and 39.3

## Nc1ccc(C(F)(F)F)cn1 [Fragment 162]
NS5B
  SPR Corr. response (RU): 7.6 RU
HCV RNA polymerase NS5B
  S/N in the 1st screen: 2714 and 3280
HCV RNA polymerase NS5B; Figure 1A workflow example
  Binding: + (Positive fragment binding is indicated by its S/N ratio > 10)

## O=C(O)c1ccc(C(F)(F)F)cc1 [Fragment 204]
NS5B
  SPR Corr. response (RU): < 5 RU and 3.2 RU
  SPR binding: no binding
HCV RNA polymerase NS5B
  S/N in the 1st screen: 13.4 and 11.6

## Oc1ccc(SC(F)(F)F)cc1 [Fragment 237]
NS5B
  SPR Corr. response (RU): 10.0 RU
HCV RNA polymerase NS5B
  S/N in the 1st screen: 1027 and 1179

## N#CC(c1ccccc1)N1CCOCC1 (stereo not drawn) [Fragment 328]
NS5B
  SPR binding: no binding
HCV RNA polymerase NS5B
  S/N in the 1st screen: 124.6 and 138.4

## Cc1nc2ccccc2nc1C [Fragment 339]
NS5B
  SPR Corr. response (RU): 12.2 RU
HCV RNA polymerase NS5B
  S/N in the 1st screen: 241.4 and 259.8
